Measured values published in US7217702B2, “Selective antagonists of A2A adenosine receptors” (Adenosine Therapeutics, LLC, priority 2004, dated 2007).
One block for each compound: values may come before it.

How the values were obtained:
A2A adenosine receptor = A2A adenosine receptor (Homo sapiens, UniProt P29274); assay: Human Ki of the compound tables; format: binding; details: receptor subtype not given
A3AR = molecular target: T1, A3AR (Homo sapiens, UniProt P0DMS8); assay: Binding affinity of A2AAR ligands, radioligand displacement at A3AR; details: for selectivity ratio vs. the A2AAR, A3AR: number in parentheses; for displacement of radioligand, A3AR: 1 μM candidate ligand
T1 sequence (P0DMS8 1-318): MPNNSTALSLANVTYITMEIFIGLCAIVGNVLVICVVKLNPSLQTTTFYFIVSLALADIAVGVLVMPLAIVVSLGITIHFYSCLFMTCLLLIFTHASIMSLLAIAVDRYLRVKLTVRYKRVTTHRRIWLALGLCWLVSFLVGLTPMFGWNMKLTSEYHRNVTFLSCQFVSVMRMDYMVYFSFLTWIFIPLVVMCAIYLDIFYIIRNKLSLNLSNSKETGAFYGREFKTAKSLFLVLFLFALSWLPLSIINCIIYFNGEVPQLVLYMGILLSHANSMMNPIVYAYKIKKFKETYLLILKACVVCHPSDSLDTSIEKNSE

C57BL/6 mice = assay: Motor stimulation in normal mice, locomotor activity cage system; format: in vivo, mouse
Description: The ability of compounds to stimulate motor activity in normal mice was measured using a simple, computer-assisted locomotor activity cage system. C57BL/6 mice (n═6–8 purchased from the Jackson's lab) were habituated for the testing environment for 120 minute prior to drug treatment. The test compounds were dissolved in vehicle (10% DMSO, 10% castrol oil EL-620 and 80% saline). The drug was administrated intraperitoneally at a dose of 15 mg/kg, and locomotor activity was recorded for 2 hours before and after drug administration.

[1] = system: unilateral 6-OHDA-lesioned mice; assay: L-dopa-induced locomotor sensitization in unilateral 6-OHDA-lesioned mice; format: in vivo, mouse; details: 3 or 10 mg/kg i.p. before daily L-dopa
Description: The ability of ATL-2 to modify the development of L-dopa-induced locomotor sensitization in hemiparkinsonian mice are tested. C57BL/6 mice (from the Jackson's lab, Bar Harbor, […].) are lesioned with 6-OHDA by unilateral intrastriatal using a standard lesioning protocol. Seven days after the 6-OHDA (or MPP^+) treatment, mice are injected with L-dopa (2.0 mg/kg, daily) for 14 days. Five min prior to each L-dopa treatment, the mice receive intraperitoneal pretreatment with: (1) vehicle, (2) ATL-2 (3 mg/kg) or (3) ATL-2 (10 mg/kg). […] Rotational responses to L-dopa are recorded on the days 1, 3, 5, 7, 10 and 15. Following the behavioral measurement, mice may be sacrificed and their brains sectioned through striatum and substantia nigra. Striatal enkephalin mRNA levels are determined by in situ hybridization histochemistry. Similarly, DAT (^3H-mazindol) binding is measured by receptor autoradiography to ensure successful and equivalent lesions among different experimental groups.

[2] = system: normal and dopamine-depleted mice; assay: Dose response of motor activity in normal and MPTP dopamine-depleted mice; format: in vivo, mouse; details: i.p.
Description: In the set of experiments, we perform a dose response study of ATL-2 in stimulating motor activity in normal mice, and then we further extend this to dopamine-depleted mice. Adult male mice are habituated for 120 minutes and treated (i.p.) with saline or varying doses of compound, and their locomotor activity recorded for 120 minutes.
In a second set of experiments, we utilize the MPTP treatment paradigm to create animal model of PD by severely depleting dopamine in mice. We use a single MPTP treatment paradigm (40 mg/kg) which has been reproducibly reducing dopamine to 30–40% of normal dopamine contents in striatum in our previous studies.^35,74 Adult male mice (˜[…]) are treated with single dose of MPTP (40 mg/kg). Thirty minutes after the MPTP treatment, mice are injected (i.p.) with vehicle or compounds of the invention at the same doses discussed above. Their motor activity is recorded for 180 minutes.

dopamine-depleted mice = assay: Synergy with L-dopa on locomotor activity in MPTP dopamine-depleted mice; format: in vivo, mouse; details: MPTP-treated mice
Description: We further tested the ability of these compounds to synergistically enhance motor function in conjunction with L-dopa, the standard therapy. Mice are injected (i.p.) with MPTP at a dose (1–2.5 mg/kg) that markedly decreases striatal dopamine levels. […] Locomotor behavior is monitored for 120 min before and after the treatment.

[3] = system: A2A receptor KO and WT mice; assay: Motor stimulant effect in A2A receptor KO mice and WT littermates; format: in vivo, mouse; details: 15 mg/kg, FIG. 2
Description: We validated that ATL-2 acts on the A2A receptor to stimulate motor activity by using A2AR KO mice (in both mixed (129sv X C57BL/6) as well as congenic (C57BL/6 genetic background) developed over the last several years. We evaluated the motor stimulant effect of ATL-2 in A2A receptor KO and their WT littermates. WT and A2A KO mice (n=4) were habituated for 60 minutes and treated with ATL-2 (15 mg/kg) and recorded for motor activity for 120 minutes.

A1AR = molecular target: T2, A1AR (Homo sapiens, UniProt P30542); assay: Binding affinity of A2AAR ligands, radioligand displacement at A1AR; details: for selectivity ratio vs. the A2AAR, A1AR: number in parentheses
T2 sequence (P30542 1-326): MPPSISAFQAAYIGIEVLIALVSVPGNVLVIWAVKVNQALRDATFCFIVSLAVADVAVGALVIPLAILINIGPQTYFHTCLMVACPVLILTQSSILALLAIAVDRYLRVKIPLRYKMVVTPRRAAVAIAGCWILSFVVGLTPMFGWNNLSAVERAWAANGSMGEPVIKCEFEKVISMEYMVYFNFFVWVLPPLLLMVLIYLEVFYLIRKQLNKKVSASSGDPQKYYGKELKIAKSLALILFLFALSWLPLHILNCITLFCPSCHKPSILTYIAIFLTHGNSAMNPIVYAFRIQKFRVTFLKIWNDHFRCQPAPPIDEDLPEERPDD

A2AAR = A2AAR (Homo sapiens, UniProt P29274); assay: Binding affinity of A2AAR ligands, radioligand displacement at A2AAR
A2AAR, sequence (P29274 whole entry): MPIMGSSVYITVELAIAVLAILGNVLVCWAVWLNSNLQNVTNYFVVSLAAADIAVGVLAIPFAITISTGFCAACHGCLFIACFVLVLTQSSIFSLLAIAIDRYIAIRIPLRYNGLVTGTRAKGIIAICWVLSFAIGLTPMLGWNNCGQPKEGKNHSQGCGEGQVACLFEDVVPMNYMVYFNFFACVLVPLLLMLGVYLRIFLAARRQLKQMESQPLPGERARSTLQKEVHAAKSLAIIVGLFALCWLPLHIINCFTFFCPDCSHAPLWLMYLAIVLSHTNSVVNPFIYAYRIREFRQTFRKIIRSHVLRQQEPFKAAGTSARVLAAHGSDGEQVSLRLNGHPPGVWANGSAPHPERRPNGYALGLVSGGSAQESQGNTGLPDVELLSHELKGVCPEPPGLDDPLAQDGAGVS

A2BAR = molecular target: T3, A2BAR (Homo sapiens, UniProt P29275); assay: Binding affinity of A2AAR ligands, radioligand displacement at A2BAR; details: for selectivity ratio vs. the A2AAR, A2BAR: number in parentheses; for displacement of radioligand, A2BAR: 1 μM candidate ligand
T3 sequence (P29275 1-332): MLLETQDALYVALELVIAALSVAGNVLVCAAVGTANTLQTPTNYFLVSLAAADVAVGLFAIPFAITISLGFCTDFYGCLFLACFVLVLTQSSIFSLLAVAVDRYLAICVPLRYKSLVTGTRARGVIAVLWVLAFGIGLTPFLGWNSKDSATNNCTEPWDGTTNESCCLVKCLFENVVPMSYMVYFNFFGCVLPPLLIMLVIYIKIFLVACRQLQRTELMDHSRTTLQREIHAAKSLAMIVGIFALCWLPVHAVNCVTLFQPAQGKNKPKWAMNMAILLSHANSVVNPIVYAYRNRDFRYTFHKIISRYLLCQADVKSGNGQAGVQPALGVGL

PD patients = details: 20–80 mg/day; cited from earlier work
rats = details: cited from earlier work
[4] = cited from earlier work
[5] = in vivo; cited from earlier work
[6] = normal C57BL/6 mice, 15 mg/kg intraperitoneally, FIG. 1

A2A adenosine receptor, sequence (P29274 whole entry): as the sequence (P29274 whole entry) above

SMILES: C[C@@H]1CCC[C@@](O)(C#Cc2nc(N)c3ncn(C4CCCC4)c3n2)C1 [Compound 3, 9-Cyclopentyl-2-{2-[1(S)-hydroxy-3(R)-methyl-1-cyclohexyl]ethyn-1-yl}adenine]
- Ki (A2A adenosine receptor): < 0.1 µM
- Ki (A3AR): 633 nM
- selectivity ratio vs. the A2AAR, A3AR (A3AR): 63
- Ki (A1AR): 368 nM
- selectivity ratio vs. the A2AAR, A1AR (A1AR): 37
- Ki (A2AAR): 10 nM
- Ki (A2BAR): 357 nM
- selectivity ratio vs. the A2AAR, A2BAR (A2BAR): 36

SMILES: Nc1nc(C#CC2(O)C3CC4CC(C3)CC2C4)nc2c1ncn2CC1CCCC1 (stereo not drawn) [Compound 47, 9-Cyclopentylmethyl-2-{2-[hydroxy-adamantan-2-yl]ethyn-1-yl}adenine]
- Ki (A2A adenosine receptor): < 0.5 µM

SMILES: Nc1nc(C#CC2(O)C3CC4CC(C3)CC2C4)nc2c1ncn2C1CCC1 (stereo not drawn) [Compound 49, 9-Cyclobutyl-2-{2-[hydroxy-adamantan-2-yl]ethyn-1-yl}adenine]
- Ki (A2A adenosine receptor): < 0.1 µM

SMILES: Nc1nc(C#CC2(O)C3CC4CC(C3)CC2C4)nc2c1ncn2CCO (stereo not drawn) [Compound 52, 2-{2-[Hydroxy-adamantan-2-yl]ethyn-1-yl}-9-(2-hydroxyethyl)adenine]
- Ki (A2A adenosine receptor): < 0.5 µM

SMILES: Nc1nc(C#CC2(O)C3CC4CC(C3)CC2C4)nc2c1ncn2CCCO (stereo not drawn) [Compound 53]
- Ki (A2A adenosine receptor): < 0.5 µM

SMILES: C#CCn1cnc2c(N)nc(C#CCC3CCN(C(=O)OC)CC3)nc21 [Compound 63, 2-{3-[1-(Methoxycarbanoyl)piperidin-4-yl]propyn-1-yl}-9-propargyladenine]
- Ki (A2A adenosine receptor): < 0.1 µM

SMILES: CCn1c(=O)c2c(nc(/C=C/c3ccc(OC)c(OC)c3)n2C)n(CC)c1=O [KW6002]
- tolerability in clinical trial (PD patients): well tolerated
- toxicity (rats): long-term toxicity

SMILES: Nc1nc2c(cnn2CCc2ccccc2)c2nc(-c3ccco3)nn12 [SCH58261]
- solubility [4]: very poorly soluble

SMILES: Nc1nc(NCCc2ccc(O)cc2)nc2nc(-c3ccco3)nn12 [ZM241385]
- bioavailability [5]: poor bioavailability

Continued, in another order:

- Ki (A2A adenosine receptor): < 0.1 µM
- Ki (A3AR): 599 nM
- selectivity ratio vs. the A2AAR, A3AR (A3AR): 630
- Ki (A1AR): 4.6 nM
- selectivity ratio vs. the A2AAR, A1AR (A1AR): 5
- Ki (A2AAR): 0.95 nM
- Ki (A2BAR): 50 nM
SMILES: C#CCn1cnc2c(N)nc(C#C[C@]3(O)CCC[C@@H](C)C3)nc21 [Compound 2, 2-{2-[1(S)-Hydroxy-3(R)-methyl-1-cyclohexyl]ethyn-1-yl}-9-propargyladenine]
- motor stimulant effect compared with other A2AR antagonists such as SCH58261 and KW6002 (C57BL/6 mice; from previous experience with other A2AR antagonists): comparable or stronger
- duration of motor stimulation (C57BL/6 mice; [6]): about 60 minutes
- motor stimulation (locomotor activity) (C57BL/6 mice; [6]): strong motor stimulation
- time to peak of motor stimulation (C57BL/6 mice; [6]): ≤ 20 min
- development of L-dopa-induced locomotor sensitization [1]: delays or prevent the development of locomotor sensitization
- motor function, dose dependence [2]: Enhances Motor Function in a Dose-dependent Manner
- shift of the dose-response curve with L-dopa (dopamine-depleted mice): left-shift
- effect with L-dopa in stimulating locomotor activity (dopamine-depleted mice; L-dopa 25 mg/kg + ATL-2 0.3-10 mg/kg): synergistic effect
- motor stimulation in A2A receptor KO mice ([3]; A2A receptor KO mice): absent
- motor activity in WT mice ([3]; WT littermates): produced motor activity

- Ki (A2A adenosine receptor): < 0.5 µM
- displacement of radioligand, A3AR (A3AR): 30%
- Ki (A1AR): 172 nM
- selectivity ratio vs. the A2AAR, A1AR (A1AR): 1.3
- Ki (A2AAR): 137 nM
- displacement of radioligand, A2BAR (A2BAR): 20%
SMILES: CCC(CC)Nc1nc(C#C[C@]2(O)CCC[C@@H](C)C2)nc2c1ncn2C [Compound 11, 2-{2-[1(S)-Hydroxy-3(R)-methyl-1-cyclohexyl]ethyn-1-yl}-9-methyl-N6-(3-pentyl)adenine]

- Ki (A2A adenosine receptor): < 0.1 µM
- Ki (A3AR): 188 nM
- selectivity ratio vs. the A2AAR, A3AR (A3AR): 38
- Ki (A1AR): 11 nM
- selectivity ratio vs. the A2AAR, A1AR (A1AR): 2
- Ki (A2AAR): 5 nM
- Ki (A2BAR): 147 nM
- selectivity ratio vs. the A2AAR, A2BAR (A2BAR): 29
SMILES: C#CCn1cnc2c(NC(CC)CC)nc(C#C[C@]3(O)CCC[C@@H](C)C3)nc21 [Compound 17, 2-{2-[1(S)-Hydroxy-3(R)-methyl-1-cyclohexyl]ethyn-1-yl}-N6-(3-pentyl)-9-(propargyl)adenine]

- Ki (A2A adenosine receptor): < 0.1 µM
- displacement of radioligand, A3AR (A3AR): 40%
- Ki (A1AR): > 325 nM
- selectivity ratio vs. the A2AAR, A1AR (A1AR): > 27
- Ki (A2AAR): 12 nM
- displacement of radioligand, A2BAR (A2BAR): 40%
SMILES: Nc1nc(C#CC2(O)C3CC4CC(C3)CC2C4)nc2c1ncn2C1CCCC1 (stereo not drawn) [Compound 50]

- Ki (A2A adenosine receptor): < 0.1 µM
- Ki (A3AR): > 650 nM
- selectivity ratio vs. the A2AAR, A3AR (A3AR): > 400
- Ki (A1AR): 25 nM
- selectivity ratio vs. the A2AAR, A1AR (A1AR): 16
- Ki (A2AAR): 1.6 nM
- Ki (A2BAR): 155 nM
- selectivity ratio vs. the A2AAR, A2BAR (A2BAR): 97
SMILES: C#CCn1cnc2c(N)nc(C#CC3(O)C4CC5CC(C4)CC3C5)nc21 (stereo not drawn) [Compound 51]

- Ki (A2A adenosine receptor): < 0.1 µM
SMILES: C#CCCn1cnc2c(N)nc(C#CC3(O)C4CC5CC(C4)CC3C5)nc21 (stereo not drawn) [Compound 62, 9-(But-3-ynyl)-2-{2-[hydroxy-adamantan-2-yl]ethyn-1-yl}adenine]
